From patent US6413913B1, “Thiono-thiochroman and -dihydrobenzothiophene compounds as herbicidal agents” (BASF Corporation, priority 1999, dated 2002)

Experiments:
[1] = system: ABUTH (Velvetleaf); assay: Postemergence herbicidal evaluation; format: in vivo, Abutilon theophrasti, Medic.; conditions: rated about 2-3 weeks after treatment, scale 0-9, averaged
Experimental: (§1) Seedling plants are grown in jiffy flats for about two weeks. The test compounds are dispersed in 80/20 (v/v) acetone/water mixtures containing 1.0% SUN-IT® II, a methylated seed oil, in sufficient quantities to provide the equivalent of about 0.006 kg/ha to 0.800 kg/ha of active compound when applied to the plants through a spray nozzle operating at 40 psi for a predetermined time. After spraying, the plants are placed on greenhouse benches and are cared for in accordance with conventional greenhouse procedures. Approximately two—three weeks after treatment, the seedling plants are examined and rated according to the rating system set forth below. Where more than one test is involved for a given compound, the data are averaged.

[2] = system: AMBEL (Ragweed, Common); assay: Postemergence herbicidal evaluation; format: in vivo, Ambrosia artemisifolia, L.; conditions: rated about 2-3 weeks after treatment, scale 0-9, averaged
Experimental: as §1

[3] = system: IPOHE (Morningglory, Ivyleaf); assay: Postemergence herbicidal evaluation; format: in vivo, Ipomoea hederacea, (L) Jacq.; conditions: rated about 2-3 weeks after treatment, scale 0-9, averaged
Experimental: as §1

[4] = system: ECHCG (Barnyardgrass); assay: Postemergence herbicidal evaluation; format: in vivo, Echinochloa crus-galli, (L.) Beau; conditions: rated about 2-3 weeks after treatment, scale 0-9, averaged
Experimental: as §1

[5] = system: PANDI (Panicum, Fall); assay: Postemergence herbicidal evaluation; format: in vivo, Panicum dichotomiflorum, Michx.; conditions: rated about 2-3 weeks after treatment, scale 0-9, averaged
Experimental: as §1

[6] = system: SETVI (Foxtail, Green); assay: Postemergence herbicidal evaluation; format: in vivo, Setaria viridis, (L.) Beau; conditions: rated about 2-3 weeks after treatment, scale 0-9, averaged
Experimental: as §1

[7] = system: ZEAMX (Corn, Field); assay: Postemergence herbicidal evaluation (crop); format: in vivo, Zea mays, L.; conditions: rated about 2-3 weeks after treatment, scale 0-9, averaged
Experimental: as §1

[8] = system: ABUTH (Velvetleaf); assay: Preemergence herbicidal evaluation; format: in vivo, Abutilon theophrasti, Medic.; conditions: rated about 2-4 weeks after treatment, scale 0-9
Text: (§2) In these tests, seeds of a variety of monocotyledonous and dicotyledonous plants are separately mixed with potting soil and planted on top of approximately one inch of soil in separate pint cups. After planting, the cups are sprayed with the selected aqueous acetone solution containing test compound in sufficient quantity to provide the equivalent of about 0.0125 to 0.800 kg per hectare of test compound per cup. The treated cups are then placed on greenhouse benches, watered and cared for in accordance with conventional greenhouse procedures. Approximately two—four weeks after treatment, the tests are terminated and each cup is examined and rated according to the rating system provided in Example 6.

[9] = system: AMBEL (Ragweed, Common); assay: Preemergence herbicidal evaluation; format: in vivo, Ambrosia artemisifolia, L.; conditions: rated about 2-4 weeks after treatment, scale 0-9
Text: as §2

[10] = system: IPOHE (Morningglory, Ivyleaf); assay: Preemergence herbicidal evaluation; format: in vivo, Ipomoea hederacea, (L) Jacq.; conditions: rated about 2-4 weeks after treatment, scale 0-9
Text: as §2

[11] = system: ECHCG (Barnyardgrass); assay: Preemergence herbicidal evaluation; format: in vivo, Echinochloa crus-galli, (L.) Beau; conditions: rated about 2-4 weeks after treatment, scale 0-9
Text: as §2

[12] = system: PANDI (Panicum, Fall); assay: Preemergence herbicidal evaluation; format: in vivo, Panicum dichotomiflorum, Michx.; conditions: rated about 2-4 weeks after treatment, scale 0-9
Text: as §2

[13] = system: SETVI (Foxtail, Green); assay: Preemergence herbicidal evaluation; format: in vivo, Setaria viridis, (L.) Beau; conditions: rated about 2-4 weeks after treatment, scale 0-9
Text: as §2

[14] = system: ZEAMX (Corn, Field); assay: Preemergence herbicidal evaluation (crop); format: in vivo, Zea mays, L.
Text: as §2

[15] = preemergence, 0.050 kg/ha, rated about 2-4 weeks after treatment, scale 0-9
[16] = preemergence, 0.100 kg/ha, rated about 2-4 weeks after treatment, scale 0-9

Row | SMILES | Herbicide rating ABUTH ([1]; 0.050 kg/ha) | Herbicide rating ABUTH ([1]; 0.100 kg/ha) | Herbicide rating AMBEL ([2]; 0.050 kg/ha) | Herbicide rating AMBEL ([2]; 0.100 kg/ha) | Herbicide rating ECHCG ([4]; 0.050 kg/ha) | Herbicide rating ECHCG ([4]; 0.100 kg/ha) | Herbicide rating PANDI ([5]; 0.050 kg/ha) | Herbicide rating PANDI ([5]; 0.100 kg/ha) | Herbicide rating SETVI ([6]; 0.050 kg/ha) | Herbicide rating SETVI ([6]; 0.100 kg/ha) | Herbicide rating ABUTH ([8]; 0.050 kg/ha) | Herbicide rating ABUTH ([8]; 0.100 kg/ha) | Herbicide rating AMBEL ([9]; 0.050 kg/ha) | Herbicide rating AMBEL ([9]; 0.100 kg/ha) | Herbicide rating ECHCG ([11]; 0.050 kg/ha) | Herbicide rating ECHCG ([11]; 0.100 kg/ha) | Herbicide rating PANDI ([12]; 0.050 kg/ha) | Herbicide rating PANDI ([12]; 0.100 kg/ha) | Herbicide rating SETVI ([13]; 0.050 kg/ha) | Herbicide rating SETVI ([13]; 0.100 kg/ha) | also measured
1 | CCn1ncc(C(=S)c2ccc3c(c2C)/C(=N/OC)CCS3(=O)=O)c1O [Example 1, 6-[(1-Ethyl-5-hydroxypyrazol-4-yl)thicarbonyl]-5-methylthiochroman-4-one (E) -O-Methyloxime, 1,1-Dioxide] | 7.6 | 8.0 | 8.2 | 8.4 | 8.0 | 7.8 | 6.3 | 6.5 | 8.5 | 9.0 | 7.3 | 9.0 | 8.5 | 8.8 | 5.8 | 8.3 | 8.0 | 8.5 | 6.6 | 8.4 | Herbicide rating IPOHE ([3]; 0.050 kg/ha): 2.0; Herbicide rating IPOHE ([3]; 0.100 kg/ha): 3.0; Herbicide rating ZEAMX (crop injury, corn) ([7]; 0.050 kg/ha): 1.2; Herbicide rating ZEAMX (crop injury, corn) ([7]; 0.100 kg/ha): 3.0; Herbicide rating IPOHE ([10]; 0.050 kg/ha): 2.5; Herbicide rating IPOHE ([10]; 0.100 kg/ha): 6.0; Herbicide rating ZEAMX (crop injury, corn) [14, 15]: 0.0; Herbicide rating ZEAMX (crop injury, corn) [14, 16]: 0.8
2 | CCn1ncc(C(=S)c2cc(C)c3c(c2C)C(C)(C)CCS3(=O)=O)c1O [Example 2] | 9.0 | 9.0 | 6.0 | 9.0 | 5.0 | 9.0 | 5.0 | 4.0 | 9.0 | 9.0 | 3.0 | 9.0 | 2.0 | 3.0 | 0.0 | 3.0 | 5.0 | 7.0 | 4.0 | 5.0 | Herbicide rating IPOHE ([3]; 0.050 kg/ha): 2.0; Herbicide rating IPOHE ([3]; 0.100 kg/ha): 4.0; Herbicide rating IPOHE ([10]; 0.050 kg/ha): 0.0; Herbicide rating IPOHE ([10]; 0.100 kg/ha): 0.0; Herbicide rating ZEAMX (crop injury, corn) ([14]; in vivo): 0.0
3 | Cc1c(C(=S)c2cnn(C)c2O)ccc2c1C(C)(C)CS2(=O)=O [Example 3] | 9.0 | 8.0 | 9.0 | 8.0 | 7.0 | 9.0 | 7.0 | 8.0 | 8.0 | 8.0 | 8.0 | 9.0 | 5.5 | 7.0 | 7.0 | 8.5 | 6.5 | 8.0 | 5.0 | 7.0 | Herbicide rating IPOHE ([10]; 0.050 kg/ha): 2.0; Herbicide rating IPOHE ([10]; 0.100 kg/ha): 2.0; Herbicide rating ZEAMX (crop injury, corn) ([14]; in vivo): 0.0
4 | CCn1ncc(C(=S)c2ccc3c(c2C)C(C)(C)CS3(=O)=O)c1O [Example 4] | 4.0 | 7.0 | 8.0 | 8.0 | 8.0 | 8.0 | 3.0 | 9.0 | 4.0 | 7.0 | 6.0 | 9.0 | 2.0 | 9.0 | 2.0 | 9.0 | 2.0 | 7.0 | 3.0 | 3.0 | Herbicide rating IPOHE ([3]; 0.050 kg/ha): 4.0; Herbicide rating IPOHE ([3]; 0.100 kg/ha): 4.0; Herbicide rating IPOHE ([10]; 0.050 kg/ha): 1.0; Herbicide rating IPOHE ([10]; 0.100 kg/ha): 1.0; Herbicide rating ZEAMX (crop injury, corn) ([14]; in vivo): 0.0
5 | CCCS(=O)(=O)Oc1c(C(=S)c2ccc3c(c2C)/C(=N/OC)CCS3(=O)=O)cnn1CC [Example 5] | – | – | – | – | – | – | – | – | – | – | 9.0 | 9.0 | 7.0 | 9.0 | 6.0 | 6.0 | 7.0 | 7.0 | 6.0 | 6.0 | Herbicide rating ZEAMX (crop injury, corn) ([7]; 0.050 kg/ha): 0.0; Herbicide rating ZEAMX (crop injury, corn) ([7]; 0.100 kg/ha): 3.0; Herbicide rating ZEAMX (crop injury, corn) [14, 15]: 0.0; Herbicide rating ZEAMX (crop injury, corn) [14, 16]: 0.0
